The nature of series [1]: High throughput dissolution screening of Aspirin. In kind it is physicochemical. Particulars: 10 mg powdered Aspirin in 10 ml deionized water, shaker, UV detector, 37 second sampling frequency for 30 minutes, FIG. 7. The protocol: A 10 mg of powdered Aspirin standard from Aldrich was weighted into a 20 ml scintillation vial and put on a shaker at a robot platform. The shaker was then turned on and an automated dispensing unit with a 10 ml syringe dispensed 10 ml of deionized water into the 20 ml scintillation vial containing the 10 mg of Aspirin thereby initiating dissolution of the 10 mg of Aspirin into the 10 ml of deionized water to form, over time, a solution having an increasing concentration of aspirin.
Thereafter, an automated sampling unit aspirated approximately 300 μL of the solution (the sample itself never enters the syringe) through an in-line filter allowing a sampled aliquot of the filtered solution to enter a switching valve and fill a 20 μL sample loop connected to the ports of the switching valve. Once the 20 μL sample loop was filled with a portion of the aliquot, the switching valve was switched to a second position by automation, causing the sub-aliquot contained in the 20 μL sample loop to be discharged into an analytical unit. The analytical unit comprised a syringe pump and an UV detector, for determining concentration. At this point, the automated sampling unit returned the remainder portion of the filtered aliquot back through the filter and back into the solution contained in the scintillation vial. […]

The conditions of series [2]: addition of viscogens such as glycerol or Ficoll; cited from earlier work.

Results on two compounds are retold here after patent publication US7234365B2, “Methods and systems for dissolution testing” (Symyx Technologies, Inc., priority 2003, dated 2007).

With `CC(=O)Oc1ccccc1C(=O)O` [Aspirin], the “time to reach maximum dissolution” value in series [1] was “less than 10 minutes”.

For Vitamin-B12, the photo stability result in series [2] is “increase in photo stability”.
